# Experimental data from US9765060B2 (Gilead Sciences, Inc., priority 2014, dated 2017).
# Molecular target: PI3K isoform δ (Homo sapiens (Human), UniProt O00329)
# Assay: TR-FRET assay of enzymatic activity of class I PI3K isoforms
# Conditions: not given
# Sequence of PI3K isoform δ (O00329 whole entry, canonical isoform): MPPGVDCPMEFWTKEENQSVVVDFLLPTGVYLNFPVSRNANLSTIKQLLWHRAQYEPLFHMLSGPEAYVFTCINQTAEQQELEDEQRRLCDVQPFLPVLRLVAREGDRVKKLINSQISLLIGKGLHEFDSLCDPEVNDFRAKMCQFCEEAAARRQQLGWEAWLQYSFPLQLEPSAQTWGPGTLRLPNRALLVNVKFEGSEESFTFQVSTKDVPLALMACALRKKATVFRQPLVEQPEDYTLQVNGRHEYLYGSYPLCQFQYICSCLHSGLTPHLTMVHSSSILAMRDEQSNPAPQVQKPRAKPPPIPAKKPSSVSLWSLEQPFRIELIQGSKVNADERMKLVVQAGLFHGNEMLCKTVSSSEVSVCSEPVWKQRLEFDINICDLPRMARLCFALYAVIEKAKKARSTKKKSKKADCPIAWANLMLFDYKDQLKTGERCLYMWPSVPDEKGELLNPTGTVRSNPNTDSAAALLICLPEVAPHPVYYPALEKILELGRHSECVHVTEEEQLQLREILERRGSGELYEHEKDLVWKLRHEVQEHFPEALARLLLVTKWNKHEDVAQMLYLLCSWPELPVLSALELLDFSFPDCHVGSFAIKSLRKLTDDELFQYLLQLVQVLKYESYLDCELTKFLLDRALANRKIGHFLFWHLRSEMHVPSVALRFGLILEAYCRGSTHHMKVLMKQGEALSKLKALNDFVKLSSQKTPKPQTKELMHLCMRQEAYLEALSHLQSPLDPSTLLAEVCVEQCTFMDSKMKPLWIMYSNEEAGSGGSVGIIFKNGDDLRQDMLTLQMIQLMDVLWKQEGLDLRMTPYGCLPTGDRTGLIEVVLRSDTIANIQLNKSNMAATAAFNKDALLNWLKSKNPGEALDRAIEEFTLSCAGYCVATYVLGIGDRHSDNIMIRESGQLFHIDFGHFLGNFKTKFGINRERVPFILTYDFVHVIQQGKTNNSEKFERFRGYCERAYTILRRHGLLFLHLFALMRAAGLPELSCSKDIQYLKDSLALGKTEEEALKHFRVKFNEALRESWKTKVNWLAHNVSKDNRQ
# Sequence of PI3K isoform δ (P27986 whole entry partner, canonical isoform): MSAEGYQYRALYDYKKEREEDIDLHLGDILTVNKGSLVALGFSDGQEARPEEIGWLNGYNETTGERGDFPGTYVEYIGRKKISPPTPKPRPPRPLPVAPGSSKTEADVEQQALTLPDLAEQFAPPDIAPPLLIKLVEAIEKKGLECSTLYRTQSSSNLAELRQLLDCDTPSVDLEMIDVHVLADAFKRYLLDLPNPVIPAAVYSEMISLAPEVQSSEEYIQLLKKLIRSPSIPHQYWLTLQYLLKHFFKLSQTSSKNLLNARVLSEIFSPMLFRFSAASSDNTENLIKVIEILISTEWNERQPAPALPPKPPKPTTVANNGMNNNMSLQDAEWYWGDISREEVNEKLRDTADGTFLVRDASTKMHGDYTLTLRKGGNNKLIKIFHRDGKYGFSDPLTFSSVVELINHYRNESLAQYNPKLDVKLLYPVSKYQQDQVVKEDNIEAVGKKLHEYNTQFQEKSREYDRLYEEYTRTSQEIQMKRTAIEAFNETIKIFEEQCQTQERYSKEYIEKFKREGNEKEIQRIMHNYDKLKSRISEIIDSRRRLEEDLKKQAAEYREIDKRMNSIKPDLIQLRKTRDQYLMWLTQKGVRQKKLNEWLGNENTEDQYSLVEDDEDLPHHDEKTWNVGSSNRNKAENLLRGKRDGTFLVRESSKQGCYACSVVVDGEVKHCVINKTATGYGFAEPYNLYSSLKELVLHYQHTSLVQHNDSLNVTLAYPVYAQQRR
row,Compound,IC50
1,"N#Cc1c(N)nc(N)nc1NC(c1nc2cccc(F)c2c(=O)n1-c1cccc(F)c1)C1CC1 (single isomer, unassigned) [Compound 15a, 2,4-diamino-6-((cyclopropyl(5-fluoro-3-(3-fluorophenyl)-4-oxo-3,4-dihydroquinazolin-2-yl)methyl)amino)pyrimidine-5-carbonitrile]",6 nM

# Same assay, conditions: IC50 (nM) for PI3K isoform δ (Table 3), TR-FRET; 2× Km ATP, 2 μM PIP2; incubated for 30 minutes at 25° C.
row,Compound,IC50
1,"C[C@H](Nc1nc(N)nc(Cl)c1C#N)c1nc2cccc(F)c2c(=O)n1-c1cc(F)cc(F)c1 [Compound 102, (S)-2-amino-4-chloro-6-((1-(3-(3,5-difluorophenyl)-5-chloro-4-oxo-3-phenyl-3,4-dihydroquinazolin-2-yl)ethyl)amino)pyrimidine-5-carbonitrile]",30 nM
2,C[C@H](Nc1nc(N)nc(N)c1C#N)c1nc2cccc(OCCN(C)C)c2c(=O)n1-c1ccccc1 [Compound 27],57 nM

# Same assay, conditions: read-out: IC50 (nM) for PI3K isoform δ (Table 3); TR-FRET; 2× Km ATP, 2 μM PIP2; incubated for 30 minutes at 25° C.
row,Compound,IC50
1,"C[C@H](Nc1nc(N)nc(N)c1C#N)c1nc2cccc(CCCN3CC(F)(F)OC(F)(F)C3)c2c(=O)n1-c1ccccc1 [Compound 54, (S)-2,4-diamino-6-((1-(4-oxo-3-phenyl-5-(3-(2,2,6,6-tetrafluoromorpholino)propyl)-3,4-dihydroquinazolin-2-yl)ethyl)amino)pyrimidine-5-carbonitrile]",0.5 nM
2,"Cc1ccccc1S(=O)(=O)c1cccc2nc([C@H](C)Nc3nc(N)nc(N)c3C#N)n(-c3cccc(F)c3)c(=O)c12 [Compound 81, (S)-2,4-diamino-6-((1-(3-(3-fluorophenyl)-4-oxo-5-(o-tolylsulfonyl)-3,4-dihydroquinazolin-2-yl)ethyl)amino)pyrimidine-5-carbonitrile]",6 nM
3,"C[C@H](Nc1nc(N)nc(N)c1C#N)c1nc2cccc(OCC(=O)N3CCOCC3)c2c(=O)n1-c1ccccc1 [Compound 35, (S)-2,4-diamino-6-((1-(5-(2-morpholino-2-oxoethoxy)-4-oxo-3-phenyl-3,4-dihydroquinazolin-2-yl)ethyl)amino)pyrimidine-5-carbonitrile]",7 nM
4,"C[C@H](Nc1nc(N)nc(N)c1C#N)c1nc2cccc(SCCO)c2c(=O)n1-c1cccc(F)c1 [Compound 79, (S)-2,4-diamino-6-((1-(3-(3-fluorophenyl)-5-((2-hydroxyethyl)thio)-4-oxo-3,4-dihydroquinazolin-2-yl)ethyl)amino)pyrimidine-5-carbonitrile]",51 nM
5,"C[C@H](Nc1nc(N)nc(N)c1C#N)c1nc2cccc(OCC(=O)N3CCCCC3)c2c(=O)n1-c1ccccc1 [Compound 28, (S)-2,4-diamino-6-((1-(4-oxo-5-(2-oxo-2-(piperidin-1-yl)ethoxy)-3-phenyl-3,4-dihydroquinazolin-2-yl)ethyl)amino)pyrimidine-5-carbonitrile]",2 nM
6,"C[C@H](Nc1nc(N)nc(N)c1C#N)c1nc2cccc(CCCN3CCOC(C)(C)C3)c2c(=O)n1-c1ccccc1 [Compound 52, (S)-2,4-diamino-6-((1-(5-(3-(2,2-dimethylmorpholino)propyl)-4-oxo-3-phenyl-3,4-dihydroquinazolin-2-yl)ethyl)amino)pyrimidine-5-carbonitrile]",0.7 nM
7,"N#Cc1cc(F)cc(-n2c([C@@H]3CCCN3c3nc(N)nc(N)c3C#N)nc3cccc(Cl)c3c2=O)c1 [Compound 88, (S)-2,4-diamino-6-(2-(5-chloro-3-(3-cyano-5-fluorophenyl)-4-oxo-3,4-dihydroquinazolin-2-yl)pyrrolidin-1-yl)pyrimidine-5-carbonitrile]",17 nM
8,"C[C@H](Nc1nc(N)nc(Cl)c1C#N)c1nc2cccc(Cl)c2c(=O)n1-c1ccccc1 [Compound 101, (S)-2-amino-4-chloro-6-((1-(5-chloro-4-oxo-3-phenyl-3,4-dihydroquinazolin-2-yl)ethyl)amino)pyrimidine-5-carbonitrile]",1 nM
9,"C[C@H](Nc1nc(N)nc(N)c1C#N)c1nc2cccc(CCCN3CC4(COC4)C3)c2c(=O)n1-c1ccccc1 [Compound 62, (S)-4-((1-(5-(3-(2-oxa-6-azaspiro[3.3]heptan-6-yl)propyl)-4-oxo-3-phenyl-3,4-dihydroquinazolin-2-yl)ethyl)amino)-2,6-diaminopyrimidine-5-carbonitrile]",0.8 nM
10,"C[C@H](Nc1nc(N)nc(N)c1C#N)c1nc2cccc(OCCN3CCN(c4ccccc4)CC3)c2c(=O)n1-c1ccccc1 [Compound 31, (S)-2,4-diamino-6-((1-(4-oxo-3-phenyl-5-(2-(4-phenylpiperazin-1-yl)ethoxy)-3,4-dihydroquinazolin-2-yl)ethyl)amino)pyrimidine-5-carbonitrile]",4 nM
11,"Cc1nc(N)c(C#N)c(N[C@@H](C)c2nc3cccc(Cl)c3c(=O)n2-c2ccccc2)n1 [Compound 98, (S)-4-amino-6-((1-(5-chloro-4-oxo-3-phenyl-3,4-dihydroquinazolin-2-yl)ethyl)amino)-2-methylpyrimidine-5-carbonitrile]",10 nM
12,"N#Cc1c(N)nc(N)nc1N1C[C@@H](NC(=O)C(F)(F)F)C[C@H]1c1nc2cccc(Cl)c2c(=O)n1-c1ccccc1 [Compound 108, N-((3S,5S)-5-(5-chloro-4-oxo-3-phenyl-3,4-dihydroquinazolin-2-yl)-1-(2,6-diamino-5-cyanopyrimidin-4-yl)pyrrolidin-3-yl)-2,2,2-trifluoroacetamide]",2 nM
13,"C[C@H](Nc1nc(N)nc(N)c1C#N)c1nc2cccc(OCC(C)(CO)CO)c2c(=O)n1-c1ccccc1 [Compound 29, (S)-2,4-diamino-6-((1-(5-(3-hydroxy-2-(hydroxymethyl)-2-methylpropoxy)-4-oxo-3-phenyl-3,4-dihydroquinazolin-2-yl)ethyl)amino)pyrimidine-5-carbonitrile]",220 nM
14,"C[C@H](Nc1nc(Cl)nc(N)c1C#N)c1nc2cccc(Cl)c2c(=O)n1-c1ccccc1 [Compound 104, (S)-4-amino-2-chloro-6-((1-(5-chloro-4-oxo-3-phenyl-3,4-dihydroquinazolin-2-yl)ethyl)amino)pyrimidine-5-carbonitrile]",4 nM
15,"C[C@H](Nc1nc(N)nc(N)c1C#N)c1nc2cccc(CCCN3CCC(F)(F)CC3)c2c(=O)n1-c1ccccc1 [Compound 48, (S)-2,4-diamino-6-((1-(5-(3-(4,4-difluoropiperidin-1-yl)propyl)-4-oxo-3-phenyl-3,4-dihydroquinazolin-2-yl)ethyl)amino)pyrimidine-5-carbonitrile]",0.5 nM
16,"Cc1nc(N)c(Br)c(N[C@@H](C)c2nc3cccc(Cl)c3c(=O)n2-c2cc(F)cc(F)c2)n1 [Compound 21, (S)-2-(1-((6-amino-5-bromo-2-methylpyrimidin-4-yl)amino)ethyl)-5-chloro-3-(3,5-difluorophenyl)quinazolin-4(3H)-one]",30 nM
17,"C[C@H](Nc1nc(N)nc(Cl)c1C#N)c1nc2c(F)ccc(Cl)c2c(=O)n1-c1ccccc1 [Compound 66, (S)-2-amino-4-chloro-6-((1-(5-chloro-8-fluoro-4-oxo-3-phenyl-3,4-dihydroquinazolin-2-yl)ethyl)amino)pyrimidine-5-carbonitrile]",0.7 nM
18,"N#Cc1c(N)nc(N)nc1N1CCC[C@H]1c1nc2cccc(Cl)c2c(=O)n1-c1cc(F)cc(F)c1 [Compound 83, (S)-2,4-diamino-6-(2-(5-chloro-3-(3,5-difluorophenyl)-4-oxo-3,4-dihydroquinazolin-2-yl)pyrrolidin-1-yl)pyrimidine-5-carbonitrile]",2 nM
19,"C[C@H](Nc1nc(N)nc(N)c1C#N)c1nc2cccc(OCCN3CCOCC3)c2c(=O)n1-c1ccccc1 [Compound 22, (S)-2,4-diamino-6-((1-(5-(2-morpholinoethoxy)-4-oxo-3-phenyl-3,4-dihydroquinazolin-2-yl)ethyl)amino)pyrimidine-5-carbonitrile]",22 nM
20,"C[C@H](Nc1nc(N)nc(N)c1C#N)c1nc2cccc(CCCN3CCC4(COC4)C3)c2c(=O)n1-c1ccccc1 [Compound 63, (S)-4-((1-(5-(3-(2-oxa-6-azaspiro[3.4]octan-6-yl)propyl)-4-oxo-3-phenyl-3,4-dihydroquinazolin-2-yl)ethyl)amino)-2,6-diaminopyrimidine-5-carbonitrile]",0.8 nM
21,"Cc1nc(N)c(Br)c(N[C@@H](C)c2nc3cccc(Cl)c3c(=O)n2-c2ccccc2)n1 [Compound 20, (S)-2-(1-((6-amino-5-bromo-2-methylpyrimidin-4-yl)amino)ethyl)-5-chloro-3-phenylquinazolin-4(3H)-one]",21 nM
22,"N-((3R,5S)-5-(5-chloro-3-(3-(difluorophenyl)-5-fluorophenyl)-4-oxo-3,4-dihydroquinazolin-2-yl)-1-(2,6-diamino-5-cyanopyrimidin-4-yl)pyrrolidin-3-yl)-2,2-difluoroacetamide [Compound 110]",2 nM
